Here are results for 5 molecules from patent US20240158446A1, “CYCLIC COMPOUND HAVING SELECTIVE INHIBITORY ACTION ON KRAS OVER HRAS AND NRAS” (CHUGAI SEIYAKU KABUSHIKI KAISHA, priority 2021, published 2024).

Read-outs that look alike come from different tables or passages of the source. Where a SMILES comes first, the peptide text is derived from it. Bridges are numbered along the chain shown (N, C = ends). [ ]: non-standard residue; d: D form. The star is where a group is joined. hPhe(3,5-F2-4-CF3) = N[C@@H](CCc1cc(F)c(C(F)(F)F)c(F)c1)C(=O)O; hPhe(3-Cl-4-CF3) = N[C@@H](CCc1ccc(C(F)(F)F)c(Cl)c1)C(=O)O; NPrPhe(4-CF3) = CCCN[C@@H](Cc1ccc(C(F)(F)F)cc1)C(=O)O; NEtPhe(4-Me) = CCN[C@@H](Cc1ccc(C)cc1)C(=O)O; NMeGly(cPent) = CN[C@H](C(=O)O)C1CCCC1; NMeD = CN[C@@H](CC(=O)O)C(=O)O; NMeL = CN[C@@H](CC(C)C)C(=O)O; Iva = CC[C@](C)(N)C(=O)O; Morpholide = C1CN(*)CCO1; Ac5c = NC1(C(=O)O)CCCC1; Aze = O=C(O)[C@@H]1CCN1; NEtG = CCNCC(=O)O; Sar = CNCC(=O)O

Test [1] concerns the target GDP-bound KRAS wild-type protein (Homo sapiens, UniProt P01116). Briefly: Binding to KRAS by surface plasmon resonance (SPR), Single Cycle Kinetics. Particulars: GDP-bound KRAS wild-type protein, read-out: KRAS KD. On the technique in general: In SPR one partner is held on a chip, and binding of the other changes the refractive index at the surface.
In test [2] the target is GDP-bound NRAS wild-type protein (Homo sapiens, UniProt P01111). Nature of the test: Binding to NRAS by surface plasmon resonance (SPR), Single Cycle Kinetics. The conditions noted are these: SPR, GDP-bound NRAS wild-type protein vs GDP-bound KRAS wild-type protein.
GDP-bound NRAS wild-type protein, sequence (P01111 whole entry): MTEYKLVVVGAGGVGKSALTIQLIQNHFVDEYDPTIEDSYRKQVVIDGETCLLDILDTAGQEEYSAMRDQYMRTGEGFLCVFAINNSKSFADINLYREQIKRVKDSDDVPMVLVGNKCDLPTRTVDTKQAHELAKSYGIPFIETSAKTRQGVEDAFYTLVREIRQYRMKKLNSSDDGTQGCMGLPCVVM
The target of test [3] is GDP-bound HRAS wild-type protein (Homo sapiens, UniProt P01112). Nature of the test: Binding to HRAS by surface plasmon resonance (SPR), Single Cycle Kinetics. Particulars: SPR, GDP-bound HRAS wild-type protein vs GDP-bound KRAS wild-type protein.
GDP-bound HRAS wild-type protein, sequence (P01112 whole entry): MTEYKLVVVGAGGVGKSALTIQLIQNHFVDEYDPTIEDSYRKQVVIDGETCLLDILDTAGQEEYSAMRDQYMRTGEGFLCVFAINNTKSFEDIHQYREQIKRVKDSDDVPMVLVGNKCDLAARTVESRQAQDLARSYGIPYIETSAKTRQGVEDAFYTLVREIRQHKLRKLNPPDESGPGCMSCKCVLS
[4] abbreviates: SPR Single Cycle Kinetics, 1:1 binding model.

GDP-bound KRAS wild-type protein, sequence (P01116 whole entry): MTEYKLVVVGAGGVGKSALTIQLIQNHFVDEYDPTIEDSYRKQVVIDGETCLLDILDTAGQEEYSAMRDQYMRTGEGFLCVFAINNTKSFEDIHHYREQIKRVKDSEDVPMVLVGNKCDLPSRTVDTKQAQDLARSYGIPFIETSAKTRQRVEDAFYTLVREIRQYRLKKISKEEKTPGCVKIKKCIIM

Consider `CCO[C@@H]1C[C@H]2C(=O)NC3(CCC3)C(=O)N(C)[C@@H](C3CCCC3)C(=O)N(C)[C@H](C(=O)N(C)C)CC(=O)N(C)[C@H]3CCCCCc4ccc(cc4)C[C@@H](C(=O)N(C)CC(=O)N[C@@H](CCc4ccc(C(F)(F)F)c(OC)c4)C(=O)N2C1)N1CC/C=C\C[C@@H](C1=O)N(C)C(=O)CN(C)C(=O)[C@H]([C@@H](C)CC)NC3=O` [PP2262], for which the Kd in test [1] (SPR, Single Cycle Kinetics) came to 0.24 nM. In addition, the “NRAS/KRAS (ratio of KD value for NRAS to KD value for KRAS)” value in test [2] is “A (a compound having 10 or more and less than 20 is denoted as A)”. Also, the “HRAS/KRAS (ratio of KD value for HRAS to KD value for KRAS)” value in test [3] was “B (a compound having 3 or more and less than 10 is denoted as B)”.

`CCCN1C(=O)[C@@H]2CCN2C(=O)CN(C)C(=O)[C@H]([C@@H](C)CC)NC(=O)[C@H](CC(C)C)N(C)C(=O)C[C@@H](C(=O)N2CCOCC2)N(C)C(=O)[C@H](C2CCCC2)N(C)C(=O)[C@](C)(CC)NC(=O)[C@@H]2CCCN2C(=O)[C@H](CCc2cc(F)c(C(F)(F)F)c(F)c2)NC(=O)CN(C)C(=O)[C@@H]1Cc1ccc(C(F)(F)F)cc1` [PP0790] ([NMeL]I[Sar][Aze][NPrPhe(4-CF3)][Sar][hPhe(3,5-F2-4-CF3)]P[Iva][NMeGly(cPent)][NMeD]-Morpholide; lactam N-11): in test [1] (setting [4]), the Kd was 0.56 nM. The “NRAS/KRAS (ratio of KD value with respect to NRAS to KD value with respect to KRAS)” value in test [2] was “C (A compound having a KD ratio of 0.1 or more and less than 3 is denoted as C)”. Moreover, the “HRAS/KRAS (ratio of KD value with respect to HRAS to KD value with respect to KRAS)” value in test [3] is “B (a compound having 3 or more and less than 10 is denoted as B)”.

As for `CCO[C@@H]1C[C@H]2C(=O)NC3(CC(C)(C)C3)C(=O)N(C)[C@@H](C3CCCC3)C(=O)N(C)[C@H](C(=O)N(C)CC)CC(=O)N(C)[C@@H](CC(C)C)C(=O)N[C@@H]([C@@H](C)CC)C(=O)N(C)CC(=O)N(C)[C@H]3C/C=C\CCN(C3=O)[C@@H](Cc3ccc(C(F)F)cc3)C(=O)N(C)CC(=O)N[C@@H](CCc3cc(F)c(C(F)(F)F)c(F)c3)C(=O)N2C1` [PP2046], the dissociation constant Kd in test [1] (SPR, Single Cycle Kinetics) came to 0.063 nM. Further, in test [2], the “NRAS/KRAS (ratio of KD value for NRAS to KD value for KRAS)” value was “A (a compound having 10 or more and less than 20 is denoted as A)”. Also, the “HRAS/KRAS (ratio of KD value for HRAS to KD value for KRAS)” value in test [3] is “A (a compound having 10 or more and less than 20 is denoted as A)”.

Regarding `CC[C@H](C)[C@@H]1NC(=O)[C@H](CC(C)C)N(C)C(=O)C[C@@H](C(=O)N2CCOCC2)N(C)C(=O)[C@H](C2CCCC2)N(C)C(=O)C2(CCCC2)NC(=O)[C@@H]2CCCN2C(=O)[C@H](CCc2ccc(C(F)(F)F)c(Cl)c2)NC(=O)CN(C)C(=O)[C@H](Cc2ccc(C)cc2)N(CC)C(=O)CN(CC)C(=O)CN(C)C1=O` [PP0027] ([NMeL]I[Sar][NEtG][NEtPhe(4-Me)][Sar][hPhe(3-Cl-4-CF3)]P[Ac5c][NMeGly(cPent)][NMeD]-Morpholide; lactam N-11), the Kd in test [1] (setting [4]) was 0.8 nM. For the same molecule, the “NRAS/KRAS (ratio of KD value for NRAS to KD value for KRAS)” value in test [2] was “C (A compound having a KD ratio of 0.1 or more and less than 3 is denoted as C)”. Further, in test [3], the “HRAS/KRAS (ratio of KD value for HRAS to KD value for KRAS)” value is “C (A compound having a KD ratio of 0.1 or more and less than 3 is denoted as C)”.

Turning to `CC[C@H](C)[C@@H]1NC(=O)[C@H](CC2CC2)N(C)C(=O)C[C@@H](C(=O)N(C)CC)N(C)C(=O)[C@H](C2CCCC2)N(C)C(=O)C2(CC(C)(C)C2)NC(=O)[C@@H]2C[C@@H](F)CN2C(=O)[C@H](CCc2cc(F)c(C(F)(F)F)c(F)c2)NC(=O)CN(C)C(=O)[C@H](Cc2ccc(C(F)(F)F)cc2)N2CC/C=C\C[C@@H](C2=O)N(C)C(=O)CN(C)C1=O` [PP1570], the Kd in test [1] (SPR, Single Cycle Kinetics, 1:1 binding model) amounted to 0.051 nM. Also, the “NRAS/KRAS (ratio of KD value for NRAS to KD value for KRAS)” value in test [2] (KD ratio class) is “AA (a compound having 20 or more is denoted as AA)”. Also, the “HRAS/KRAS (ratio of KD value for HRAS to KD value for KRAS)” value in test [3] (KD ratio class) is “A (a compound having 10 or more and less than 20 is denoted as A)”.

One may read the Kd as the free concentration of one partner at which half of the binding sites on the other are occupied at equilibrium, for simple one-to-one binding.
